According to ChEMBL document CHEMBL5316367, “Mass Spectrometry-Guided Discovery of Multi-N-Methylated Cyclodecapeptides Auyuittuqamides E-H from Sesquicillium sp. QL0466” (2023):
≈ marks a conversion by molar mass, not a printed value.

Assays:
Assay type in all cases: functional
[1] = test system: Enterococcus faecium; assay: Antimicrobial activity against vancomycin-sensitive Enterococcus faecium 160119481 assessed as inhibition of bacterial growth by microtiter plate reader assay
[2] = test system: Enterococcus faecium; assay: Antimicrobial activity against vancomycin-resistant Enterococcus faecium 151458137 assessed as inhibition of bacterial growth by microtiter plate reader assay
[3] = test system: Staphylococcus aureus; assay: Antimicrobial activity against methicillin-resistant Staphylococcus aureus 11646 assessed as inhibition of bacterial growth by microtiter plate reader assay
[4] = test system: Escherichia coli; assay: Antimicrobial activity against Escherichia coli ATCC 25922 assessed as inhibition of bacterial growth by microtiter plate reader assay
[5] = test system: Staphylococcus aureus; assay: Antimicrobial activity against Staphylococcus aureus ATCC 6538 assessed as inhibition of bacterial growth by microtiter plate reader assay

Row | Compound | MIC [1] [µg/mL] | MIC [2] [µg/mL] | MIC [3] [µg/mL] | MIC [4] [µg/mL] | MIC [5] [µg/mL]
1 | CC[C@H](C)[C@@H]1NC(=O)CNC(=O)[C@H](CC(C)C)N(C)C(=O)[C@H]([C@@H](C)CC)NC(=O)[C@H]([C@@H](C)O)N(C)C(=O)[C@H](Cc2ccccc2)NC(=O)CNC(=O)[C@@H](CC(C)C)N(C)C(=O)[C@H](CC(C)C)NC(=O)[C@H](CO)NC1=O | 8 (≈ 7.57 µM) | 8 (≈ 7.57 µM) | > 128 | > 128 | 8 (≈ 7.57 µM)
2 | CC[C@H](C)[C@@H]1NC(=O)[C@H]([C@@H](C)O)N(C)C(=O)[C@H](Cc2ccccc2)NC(=O)CNC(=O)[C@@H](CC(C)C)N(C)C(=O)[C@H](CC(C)C)NC(=O)[C@H](CO)NC(=O)[C@H](CC(C)C)NC(=O)CNC(=O)[C@H](CC(C)C)N(C)C1=O | 8 (≈ 7.57 µM) | 8 (≈ 7.57 µM) | > 128 | > 128 | 8 (≈ 7.57 µM)
3 | CC[C@H](C)[C@@H]1NC(=O)CNC(=O)[C@H](CC(C)C)N(C)C(=O)[C@H]([C@@H](C)CC)NC(=O)[C@H]([C@@H](C)O)N(C)C(=O)[C@H](Cc2ccccc2)NC(=O)CNC(=O)[C@@H](CC(C)C)N(C)C(=O)[C@H]([C@@H](C)CC)NC(=O)[C@H](CO)NC1=O | 8 (≈ 7.57 µM) | 8 (≈ 7.57 µM) | > 128 | > 128 | 8 (≈ 7.57 µM)
4 | NC[C@H]1O[C@H](O[C@H]2[C@H](O)[C@@H](O[C@H]3O[C@H](CO)[C@@H](O)[C@H](N)[C@H]3O)[C@H](N)C[C@@H]2N)[C@H](N)[C@@H](O)[C@@H]1O [BEKANAMYCIN] |  |  |  | 32 (≈ 66.2 µM) | 
5 | CC[C@H](C)[C@@H]1NC(=O)[C@H](CO)NC(=O)[C@H](CC(C)C)NC(=O)CNC(=O)[C@H](CC(C)C)N(C)C(=O)[C@H]([C@@H](C)CC)NC(=O)[C@H]([C@@H](C)O)N(C)C(=O)[C@H](Cc2ccccc2)NC(=O)CNC(=O)[C@@H](CC(C)C)N(C)C1=O | 8 (≈ 7.57 µM) | 8 (≈ 7.57 µM) | > 128 | > 128 | 8 (≈ 7.57 µM)
